Results published in PubChem BioAssay (NCI).
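Cultured in 96-well plates, cells were exposed to test compound for 48 hours across five concentrations. GI50 = concentration required for 50% inhibition of growth. Definition used: TGI = concentration required for complete inhibition of growth.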

Legend:
Assay in all cases: NCI anticancer screen, dose series, 48 h
SF-268 CNS = system: SF-268 CNS
SN12C renal = system: SN12C renal
HCT-15 colon = system: HCT-15 colon
MDA-MB-435 = system: MDA-MB-435
LOX IMVI melanoma = system: LOX IMVI melanoma
BT-549 breast = system: BT-549 breast
UO-31 renal = system: UO-31 renal
HOP-92 NSCLC = system: HOP-92 NSCLC
SNB-19 CNS = system: SNB-19 CNS
TK-10 renal = system: TK-10 renal

SMILES | GI50 (SF-268 CNS) [µM] | TGI (SF-268 CNS) [µM] | GI50 (SN12C renal) [µM] | TGI (SN12C renal) [µM] | GI50 (HCT-15 colon) [µM] | TGI (HCT-15 colon) [µM] | GI50 (MDA-MB-435) [µM] | TGI (MDA-MB-435) [µM] | GI50 (LOX IMVI melanoma) [µM] | TGI (LOX IMVI melanoma) [µM] | GI50 (BT-549 breast) [µM] | TGI (BT-549 breast) [µM] | GI50 (UO-31 renal) [µM] | TGI (UO-31 renal) [µM] | GI50 (HOP-92 NSCLC) [µM] | TGI (HOP-92 NSCLC) [µM] | GI50 (SNB-19 CNS) [µM] | TGI (SNB-19 CNS) [µM] | TGI (TK-10 renal) [µM] | GI50 (TK-10 renal) [µM]
CCN(Cc1ccc(F)cc1)c1ccc(CO)c(C(F)(F)F)c1 | 15.5 | 31.3 | 12.9 | 25.5 | 14.4 | 29.4 | 16 | 29.4 | 17.5 | 31.3 | 15.1 | 28.3 | 12.5 | 25 | 2.29 | 17.8 | 15.3 | 28.6 | – | –
Cc1ccc(NC(=O)/C(C#N)=C/c2ccccc2)c(C)c1 | – | > 100 | – | > 100 | – | > 100 | – | – | – | – | – | – | – | > 100 | – | > 100 | – | > 100 | > 100 | –
CC(=O)Nc1ccc(S(=O)(=O)NN(C)S(=O)(=O)c2ccc(C)cc2)cc1 | – | > 100 | – | > 100 | – | – | – | – | – | – | – | – | – | > 100 | – | > 100 | – | > 100 | > 100 | –
O=C(Cc1ccccc1)C(c1ccccc1)S(=O)(=O)c1ccccc1 (stereo unspecified) | – | > 100 | – | > 100 | – | > 100 | – | – | – | > 100 | – | – | – | > 100 | – | > 100 | – | > 100 | > 100 | –
C=C1C(=O)O[C@H]2[C@H]1CC/C(COC(=O)NCc1c[nH]c3ccc(F)cc13)=C\CC[C@@]1(C)O[C@@H]21 | 1.81 | 3.9 | 1.32 | 2.84 | 1.04 | 2.55 | 1.31 | 3.1 | 0.952 | 2.28 | 1.15 | 2.5 | 1.52 | 2.87 | 1.48 | 3.04 | 6.56 | 20 | 3 | 1.58
CC(=O)OCC(CC[CH2][Sn]([Cl])([Cl])[c]1ccccc1)OC(C)=O (stereo unspecified) | 18.6 | 33.9 | 21 | 41 | 17.4 | 32.1 | – | – | 16.8 | 31.6 | – | – | 17.2 | 33 | 17.1 | 33.4 | 27.7 | 74.6 | > 100 | 27.5
N#C/C(=C1\OC(=N)C(c2ccc(Cl)cc2Cl)C1=O)c1ccc(Cl)cc1Cl (stereo unspecified) | – | > 100 | – | > 100 | – | > 100 | – | – | – | > 100 | – | – | – | > 100 | – | > 100 | – | > 100 | > 100 | –
C=C1C=CC2(Br)OC3CC(C)(Cl)C(Br)CC13C2(C)C (stereo unspecified) | – | > 100 | – | 37.7 | – | 51.3 | – | – | – | 33.8 | – | – | – | 70.5 | – | 50.8 | – | 88.3 | > 100 | –
Cc1nnc(N/N=C(/C(=O)C(C#N)c2ccc(Cl)cc2)C(C#N)c2ccc(Cl)cc2)n1N (stereo unspecified) | – | 57.2 | – | 34.9 | – | 49.4 | – | – | – | 35.4 | – | – | – | 34.1 | – | > 100 | – | 27.9 | 34.7 | –
COc1ccc(-c2c3c(N)c4c(nc3nc3c2c(C)nn3-c2ccccc2)CCCC4)cc1 | 5.33 | 19.4 | 3.72 | 16.1 | 3.08 | 10.9 | 3.83 | 16.4 | 12 | 27 | 17.2 | 33.8 | 2.46 | 11.5 | – | – | 10.8 | 26.8 | – | –
CC1CCC2(C)C(CC=C(C=O)C2(O)C=O)C12CO2 (stereo unspecified) | – | 18 | – | 8.59 | – | 5.95 | – | – | – | 7.47 | – | – | – | 5.69 | – | 5.29 | – | 22.5 | 5.19 | –
C[P+]1(c2ccccc2)CCCCC1 | – | > 100 | – | > 100 | – | > 100 | – | – | – | > 100 | – | – | – | > 100 | – | – | – | > 100 | > 100 | –
O=C(CO)C1CC2C=CC1C2 (stereo unspecified) | – | > 100 | – | > 100 | – | > 100 | – | – | – | > 100 | – | – | – | > 100 | – | > 100 | – | > 100 | > 100 | –
C=CC[N+]1(CC)CCN=C1CCCCCCCCCCCCCCCCC (stereo unspecified) | 0.236 | 0.61 | 0.623 | 1.99 | – | – | – | – | – | – | – | – | 1.14 | 2.43 | – | – | – | – | 2.44 | 1.1
O=C(c1c(O)cc(O)cc1O)C1Cc2ccccc21 (stereo unspecified) | – | > 100 | – | > 100 | – | > 100 | – | – | – | > 100 | – | – | – | > 100 | – | > 100 | – | > 100 | > 100 | –
O=S(=O)(NCCCNc1nccc(-c2c(-c3ccc(F)cc3)nc3sccn23)n1)c1ccc(F)cc1 | 20 | > 100 | 9.04 | > 100 | 3.92 | > 100 | 3.69 | > 100 | 6.28 | > 100 | 3.9 | 31.2 | 3.8 | > 100 | – | – | 62.1 | > 100 | > 100 | 19.2
O=C1/C(=C/c2ccccc2O)N=C(c2ccccc2)N1c1cc(C(F)(F)F)ccc1Cl | 26.2 | 97.4 | 53.6 | > 100 | 64.7 | > 100 | 22.1 | > 100 | 40.8 | > 100 | – | – | 94.2 | > 100 | 19.1 | 53 | 31.6 | > 100 | 43.7 | 18.9
Cc1cc2c(c(=O)o1)C1=S(SC(c3ccccc3)=C1)S2 (stereo unspecified) | – | > 100 | – | > 100 | – | > 100 | – | – | – | > 100 | – | > 100 | – | 94.8 | – | 83 | – | > 100 | 87.4 | –
C=CC(=O)N[C@@H](/C=C/C(=O)OCC)Cc1ccc(-c2cc(Cl)cc(Cl)c2)cc1 | 16 | > 100 | 8.04 | 26.7 | 8.01 | > 100 | 8.58 | 50 | 14.2 | 35.6 | 11.9 | 43.8 | 4.42 | 96.2 | – | – | 16.5 | > 100 | 97.7 | 21.9
Clc1ccc([I+]c2ccc(Cl)cc2Cl)c(Cl)c1 | 2.14 | 4.99 | 1.85 | 3.9 | 2.06 | 5.25 | 1.96 | 4.33 | 1.77 | 3.36 | 2.02 | 4.06 | 1.48 | 2.98 | – | – | 4.28 | 15.9 | – | –
c1ccc2c(CNCCN3CCNCC3)c3ccccc3c(CNCCN3CCNCC3)c2c1 | 12.4 | 33.3 | – | – | > 100 | > 100 | 11.7 | 27.2 | 12.9 | 29.5 | 28.3 | 75.6 | > 100 | > 100 | – | – | 20.7 | > 100 | 79.8 | 19.7
O=C(CC(=O)c1ccccc1)C(=O)Nc1ccc(Cl)cc1 | – | > 100 | – | > 100 | – | > 59.7 | – | – | – | > 56.7 | – | – | – | > 100 | – | > 100 | – | > 100 | > 100 | –
C[C@@H](NC(=O)c1ccc(F)cc1)c1ccc2c(c1)CCN2C(=O)C1CCOCC1 | > 100 | > 100 | > 100 | > 100 | > 100 | > 100 | > 100 | > 100 | > 100 | > 100 | > 100 | > 100 | > 100 | > 100 | > 100 | > 100 | – | – | – | –
COc1ccc(C2CC(c3ccc(N(C)C)cc3)=NN2c2ccc(S(N)(=O)=O)cc2)cc1 (stereo unspecified) | 5.76 | > 100 | 2.15 | 4.63 | 2.99 | > 100 | 3.25 | 34.4 | 1.87 | 4.02 | 2.99 | 8.7 | 3.01 | 54.8 | – | – | 5.94 | > 100 | 35 | 4.32
O=C1C(Nc2cccc(O)c2)=C(Sc2ccccc2)C(=O)N1Cc1ccccc1 | 10.5 | 26.8 | 13 | 29.6 | 12.4 | 38.8 | 11.1 | 27.4 | 13 | 39.4 | 11.2 | 43.5 | 4.98 | 18 | – | – | 13 | 27 | 16.8 | –
CCc1ccccc1NC(=O)CC1NC(=O)CS1 (stereo unspecified) | – | > 100 | – | > 100 | – | – | – | – | – | > 100 | – | – | – | > 100 | – | > 100 | – | > 100 | > 100 | –
CC(=O)CC(=O)CCC(=O)Nc1cccc(C(F)(F)F)c1 | – | > 100 | – | > 100 | – | > 100 | – | – | – | > 100 | – | – | – | > 100 | – | > 100 | – | > 100 | > 100 | –
Cn1nc(-c2ccccc2)c(C(=O)/C=C/c2ccc(Cl)cc2)c(N2CCOCC2)c1=O | – | 11.8 | – | 29.2 | – | 13.4 | – | – | – | 61.7 | – | – | – | 21.7 | – | 9.36 | – | 29.3 | 25.8 | –
